pEC50: −log10 of the molar value.

Assay [1] deals with MKN45 cells. Put plainly: MKN45 cell proliferation assay (Cell-Titer-Glo, 120 h). It counts as cell-based. The conditions noted are these: for pEC50: Homo sapiens, MKN-45, 120 h, Cell-Titer-Glo, growth inhibition, read-out: MKN45 Cell Prolif. 120 hr (EC50); for MKN45 Cell Prolif. 120 hr (Ymin-Obs): minimal percent of DMSO control observed in the concentrations tested. The gist of the method: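 Growth inhibition was read as blank-corrected Cell-Titer-Glo luminescence expressed as percent DMSO control after 120 h at 37 C, 400 cells/well. Compounds tested in triplicate as 10-point half-log series from 1 or 10 uM, 0.1% DMSO; four-parameter fit gave EC50, and lowest observed percent control was reported as Ymin-obs.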

The target of assay [2] is T1, WEE1 (Homo sapiens, UniProt P30291+Q96SW2).
T1 construct: C-terminal ePL-tagged (DiscoverX, Fremont, CA) full-length WEE1 expression construct; expressed in transfected cells; host or cells: LentiX-HEK293T (Invitrogen), lentiviral transduction; co-expressing GSPT1-GN (G576N, lacking the first 158 amino acids)
Kind of assay: WEE1-ePL degradation assay (LentiX-WEE1-ePL-GSPT1-ND cells, InCELL Hunter luminescence, 4 h). It counts as cell-based. The conditions noted are these: 293T-LentiX WEE1-ePL cells; for 293T-LentiX WEE1-ePL Degradation 4 hr (Ymin): lower limit of the fit (0 = luciferase inhibitor, Ymax = DMSO control); for DC50: read-out: 293T-LentiX WEE1-ePL Degradation 4 hr (EC50). Summed up:
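Degradation EC50 was fitted by a four-parameter logistic model, with the upper limit taken from DMSO wells. Luminescence was read with InCELL Hunter reagent after 30 min at room temperature, following a 4 h, 37° C exposure of 2500 cells/well. Cells were LentiX-HEK293T carrying ePL-tagged full-length WEE1, dosed in 10 points (3-fold) from 1 or 10 uM.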

What is called pEC50 is the EC50 on a negative log10 scale, so that one unit is a factor of ten. Consider `O=C1CCC(N2Cc3cc(O[C@H]4CCN(Cc5ccc6nc(N7CCC(F)(F)CC7)ccc6c5)C4)ccc3C2=O)C(=O)N1` (stereo partly drawn) [3-(5-{[(3S)-1-{[2-(4,4-difluoropiperidin-1-yl)quinolin-6-yl]methyl}pyrrolidin-3-yl]oxy}-1-oxo-2,3-dihydro-1H-isoindol-2-yl)piperidine-2,6-dione], for which, in assay [1], the pEC50 is 7.75 and the “MKN45 Cell Prolif. 120 hr (Ymin-Obs)” value was determined as 17.9. Further, in assay [2], the “293T-LentiX WEE1-ePL Degradation 4 hr (Ymin)” value is listed as 21.62 and the DC50 turned out to be 38.4 nM.
For the compound `CC1(C)CC(=O)N(c2ccc3cc(CN4CC[C@H](Oc5ccc6c(c5)CN(C5CCC(=O)NC5=O)C6=O)C4)ccc3n2)C1` (stereo partly drawn) [3-(5-{[(3S)-1-{[2-(4,4-dimethyl-2-oxopyrrolidin-1-yl)quinolin-6-yl]methyl}pyrrolidin-3-yl]oxy}-1-oxo-2,3-dihydro-1H-isoindol-2-yl)piperidine-2,6-dione], in assay [1], the negative-log EC50 (pEC50) is 8.56 and the “MKN45 Cell Prolif. 120 hr (Ymin-Obs)” value stood at 8.145. In assay [2], the “293T-LentiX WEE1-ePL Degradation 4 hr (Ymin)” value is recorded as 31 and the DC50 was 1.58 nM.
As to `O=C1CCC(N2Cc3cc(O[C@H]4CCN(Cc5ccc6nc(C7(O)CCOCC7)ccc6c5)C4)ccc3C2=O)C(=O)N1` (stereo partly drawn) [3-(5-{[(3S)-1-{[2-(4-hydroxyoxan-4-yl)quinolin-6-yl]methyl}pyrrolidin-3-yl]oxy}-1-oxo-2,3-dihydro-1H-isoindol-2-yl)piperidine-2,6-dione], in assay [1], the pEC50 was 8.13 and the “MKN45 Cell Prolif. 120 hr (Ymin-Obs)” value came to 6.55. For the same compound, in assay [2], the “293T-LentiX WEE1-ePL Degradation 4 hr (Ymin)” value came to 31.5 and the DC50 is 8.84 nM.
As to `O=C1CCC(N2Cc3cc(O[C@H]4CCN(Cc5ccc6nc(N7CCC(O)CC7)ccc6c5)C4)ccc3C2=O)C(=O)N1` (stereo partly drawn) [3-(5-{[(3S)-1-{[2-(4-hydroxypiperidin-1-yl)quinolin-6-yl]methyl}pyrrolidin-3-yl]oxy}-1-oxo-2,3-dihydro-1H-isoindol-2-yl)piperidine-2,6-dione], in assay [1], the negative-log EC50 (pEC50) is 8.18 and the “MKN45 Cell Prolif. 120 hr (Ymin-Obs)” value came to 9.69. In assay [2], the “293T-LentiX WEE1-ePL Degradation 4 hr (Ymin)” value is recorded as 34.5 and the DC50 is 2.86 nM.
Consider `COC1CCN(c2ccc3cc(CN4CC[C@H](Oc5ccc6c(c5)CN(C5CCC(=O)NC5=O)C6=O)C4)ccc3n2)CC1` (stereo partly drawn) [3-(5-{[(3S)-1-{[2-(4-methoxypiperidin-1-yl)quinolin-6-yl]methyl}pyrrolidin-3-yl]oxy}-1-oxo-2,3-dihydro-1H-isoindol-2-yl)piperidine-2,6-dione], for which, in assay [1], the pEC50 is 8.43 and the “MKN45 Cell Prolif. 120 hr (Ymin-Obs)” value stood at 9.39. For the same compound, in assay [2], the “293T-LentiX WEE1-ePL Degradation 4 hr (Ymin)” value is given as 30.5 and the DC50 was determined as 2.49 nM.
In the case of `CC1(c2ccc3cc(CN4CC[C@H](Oc5ccc6c(c5)CN(C5CCC(=O)NC5=O)C6=O)C4)ccc3n2)CCOCC1` (stereo partly drawn) [3-(5-{[(3S)-1-{[2-(4-methyloxan-4-yl)quinolin-6-yl]methyl}pyrrolidin-3-yl]oxy}-1-oxo-2,3-dihydro-1H-isoindol-2-yl)piperidine-2,6-dione], in assay [1], the pEC50 is 8.39 and the “MKN45 Cell Prolif. 120 hr (Ymin-Obs)” value is recorded as 10.29. Further, in assay [2], the “293T-LentiX WEE1-ePL Degradation 4 hr (Ymin)” value worked out at 32 and the DC50 turned out to be 1.99 nM.
The like results for `CN1CCN(c2ccc3cc(CN4CC[C@H](Oc5ccc6c(c5)CN(C5CCC(=O)NC5=O)C6=O)C4)ccc3n2)CC1` (stereo partly drawn) [3-(5-{[(3S)-1-{[2-(4-methylpiperazin-1-yl)quinolin-6-yl]methyl}pyrrolidin-3-yl]oxy}-1-oxo-2,3-dihydro-1H-isoindol-2-yl)piperidine-2,6-dione] were, in that order, 7.70, 13.365, 33.5 and 6.77 nM.
The like results for `O=C1CCC(N2Cc3cc(O[C@H]4CCN(Cc5ccc6nc(N7CCC7)ccc6c5)C4)ccc3C2=O)C(=O)N1` (stereo partly drawn) [3-(5-{[(3S)-1-{[2-(azetidin-1-yl)quinolin-6-yl]methyl}pyrrolidin-3-yl]oxy}-1-oxo-2,3-dihydro-1H-isoindol-2-yl)piperidine-2,6-dione] were, in that order, 8.17, 10.91, 37 and 3.01 nM.
Taken in the same sequence, the figures for `O=C1CCC(N2Cc3cc(O[C@H]4CCN(Cc5ccc6nc(C(F)F)ccc6c5)C4)ccc3C2=O)C(=O)N1` (stereo partly drawn) [3-(5-{[(3S)-1-{[2-(difluoromethyl)quinolin-6-yl]methyl}pyrrolidin-3-yl]oxy}-1-oxo-2,3-dihydro-1H-isoindol-2-yl)piperidine-2,6-dione] were 8.14, 9.875, 29.42 and 2.96 nM.
Regarding `CN(C)c1ccc2cc(CN3CC[C@H](Oc4ccc5c(c4)CN(C4CCC(=O)NC4=O)C5=O)C3)ccc2n1` (stereo partly drawn) [3-(5-{[(3S)-1-{[2-(dimethylamino)quinolin-6-yl]methyl}pyrrolidin-3-yl]oxy}-1-oxo-2,3-dihydro-1H-isoindol-2-yl)piperidine-2,6-dione], in assay [1], the pEC50 is 7.70 and the “MKN45 Cell Prolif. 120 hr (Ymin-Obs)” value was 12.34. In addition, in assay [2], the “293T-LentiX WEE1-ePL Degradation 4 hr (Ymin)” value came out at 26.59 and the DC50 worked out at 2.71 nM.
With `O=C1CCC(N2Cc3cc(O[C@H]4CCN(Cc5ccc6nc(CF)ccc6c5)C4)ccc3C2=O)C(=O)N1` (stereo partly drawn) [3-(5-{[(3S)-1-{[2-(fluoromethyl)quinolin-6-yl]methyl}pyrrolidin-3-yl]oxy}-1-oxo-2,3-dihydro-1H-isoindol-2-yl)piperidine-2,6-dione], in assay [1], the pEC50 is 7.93 and the “MKN45 Cell Prolif. 120 hr (Ymin-Obs)” value was found to be 10.025. Moreover, in assay [2], the “293T-LentiX WEE1-ePL Degradation 4 hr (Ymin)” value was determined as 26.21 and the DC50 came to 1.62 nM.
On to `O=C1CCC(N2Cc3cc(O[C@H]4CCN(Cc5ccc6nc(CO)ccc6c5)C4)ccc3C2=O)C(=O)N1` (stereo partly drawn) [3-(5-{[(3S)-1-{[2-(hydroxymethyl)quinolin-6-yl]methyl}pyrrolidin-3-yl]oxy}-1-oxo-2,3-dihydro-1H-isoindol-2-yl)piperidine-2,6-dione], for which, in assay [1], the pEC50 is 7.26 and the “MKN45 Cell Prolif. 120 hr (Ymin-Obs)” value was 11.84. Besides, in assay [2], the “293T-LentiX WEE1-ePL Degradation 4 hr (Ymin)” value stood at 31.475 and the DC50 came out at 9.39 nM.
Taken in the same sequence, the figures for `COCc1ncc2cc(CN3CC[C@H](Oc4ccc5c(c4)CN(C4CCC(=O)NC4=O)C5=O)C3)ccc2n1` (stereo partly drawn) [3-(5-{[(3S)-1-{[2-(methoxymethyl)quinazolin-6-yl]methyl}pyrrolidin-3-yl]oxy}-1-oxo-2,3-dihydro-1H-isoindol-2-yl)piperidine-2,6-dione] were 7.11, 9.73, 32 and 47.5 nM.
With `COCc1ccc2cc(CN3CC[C@H](Oc4ccc5c(c4)CN(C4CCC(=O)NC4=O)C5=O)C3)ccc2n1` (stereo partly drawn) [3-(5-{[(3S)-1-{[2-(methoxymethyl)quinolin-6-yl]methyl}pyrrolidin-3-yl]oxy}-1-oxo-2,3-dihydro-1H-isoindol-2-yl)piperidine-2,6-dione], in assay [1], the pEC50 is 7.69 and the “MKN45 Cell Prolif. 120 hr (Ymin-Obs)” value was found to be 8.38. In addition, in assay [2], the “293T-LentiX WEE1-ePL Degradation 4 hr (Ymin)” value is on record as 30.5 and the DC50 was determined as 5.55 nM.
Turning to `CNc1ncc2cc(CN3CC[C@H](Oc4ccc5c(c4)CN(C4CCC(=O)NC4=O)C5=O)C3)ccc2n1` (stereo partly drawn) [3-(5-{[(3S)-1-{[2-(methylamino)quinazolin-6-yl]methyl}pyrrolidin-3-yl]oxy}-1-oxo-2,3-dihydro-1H-isoindol-2-yl)piperidine-2,6-dione], in assay [1], the pEC50 was 6.63 and the “MKN45 Cell Prolif. 120 hr (Ymin-Obs)” value turned out to be 22.48. For the same compound, in assay [2], the “293T-LentiX WEE1-ePL Degradation 4 hr (Ymin)” value is 41 and the DC50 is 44.8 nM.
The like results for `CNc1ccc2cc(CN3CC[C@H](Oc4ccc5c(c4)CN(C4CCC(=O)NC4=O)C5=O)C3)ccc2n1` (stereo partly drawn) [3-(5-{[(3S)-1-{[2-(methylamino)quinolin-6-yl]methyl}pyrrolidin-3-yl]oxy}-1-oxo-2,3-dihydro-1H-isoindol-2-yl)piperidine-2,6-dione] were, in that order, 7.66, 9.31, 31.06 and 7.21 nM.
`O=C1CCC(N2Cc3cc(O[C@H]4CCN(Cc5ccc6nc(N7CCOCC7)ncc6c5)C4)ccc3C2=O)C(=O)N1` (stereo partly drawn) [3-(5-{[(3S)-1-{[2-(morpholin-4-yl)quinazolin-6-yl]methyl}pyrrolidin-3-yl]oxy}-1-oxo-2,3-dihydro-1H-isoindol-2-yl)piperidine-2,6-dione]: in assay [1], the negative logarithm of the EC50 (pEC50) is 7.79 and the “MKN45 Cell Prolif. 120 hr (Ymin-Obs)” value was found to be 9.637. In assay [2], the “293T-LentiX WEE1-ePL Degradation 4 hr (Ymin)” value came out at 31.33 and the DC50 turned out to be 7.2 nM.
With `O=C1CCC(N2Cc3cc(O[C@H]4CCN(Cc5ccc6nc(N7CCOCC7)ccc6c5)C4)ccc3C2=O)C(=O)N1` (stereo partly drawn) [3-(5-{[(3S)-1-{[2-(morpholin-4-yl)quinolin-6-yl]methyl}pyrrolidin-3-yl]oxy}-1-oxo-2,3-dihydro-1H-isoindol-2-yl)piperidine-2,6-dione], in assay [1], the negative-log EC50 (pEC50) was 7.92 and the “MKN45 Cell Prolif. 120 hr (Ymin-Obs)” value is listed as 12.168. Besides, in assay [2], the “293T-LentiX WEE1-ePL Degradation 4 hr (Ymin)” value is reported as 35 and the DC50 stood at 2.69 nM.

The values above are taken from patent US20240067632A1, “WEE1 Degrading Compounds and Uses Thereof” (Bristol-Myers Squibb Company, priority 2022, published 2024).
